From patent publication US10512634B2, “Benzimidazole derivates useful as inhibitors of mammalian histone deacetylase activity” (KANCERA AB, priority 2015, dated 2019)
pIC50: −log10 of the molar value. Where two headings read alike, the source gives them in different places.

Columns and labels:
[1] = test system: U266 (multiple myelom); assay: CellTiter-Blue cell viability assay; assay type: cell-based; conditions: Homo sapiens, read-out: IC50 U266 (cell viability)
Procedure: (§1) Method for Measurement of Cell Viability
(§2) The CellTiter-Blue® Cell Viability Assay (Promega) provides a homogeneous, fluorometric method for estimating the number of viable cells present in multi-well plates. The assay uses the indicator dye resazurin to measure the metabolic capacity of cells. Viable cells retain the ability to reduce resazurin into resorufin, which is highly fluorescent.
(§3) Stock solutions (10 mM in DMSO) of compounds were serially diluted 1:2 in 11 concentrations. 50 nL/well (10 mM compound stock in DMSO) was acoustically dispensed in 384-well assay plates with an acoustic dispenser (EDC Biosystems ATS-100AV). Final starting concentration in the assay was 20 μM (0.2% DMSO) for test compounds. […] After 72 hours, Celltiter Blue reagent (Promega #G8081) was diluted 1:10 with PBS and then added to wells (5 μL/well). The plates were incubated for 2 hours following addition of reagent. […] Results were calculated as % cell viability compared to background (cells treated with 0.2% DMSO).

[2] = test system: AMO-1 (plasmacytom); assay: CellTiter-Blue cell viability assay; assay type: cell-based; conditions: Homo sapiens, read-out: IC50 AMO-1 (cell viability)
Procedure: as §1, §2, §3

[3] = test system: PBMC (peripheral blood mononuclear cells from healthy donors); assay: CellTiter-Blue cell viability assay; assay type: cell-based; conditions: read-out: IC50 healthy PBMC (cell viability)
Procedure: as §1, §2, §3

[4] = test system: PaCa2 (pancreatic); assay: CellTiter-Blue cell viability assay; assay type: cell-based; conditions: read-out: IC50 PaCa2 (cell viability)
Procedure: as §1, §2, §3

[5] = molecular target: HDAC6 (Homo sapiens (Human), UniProt Q9UBN7); assay: HDAC in vitro enzymatic assay (fluorescence); assay type: biochemical; conditions: top concentration 2 μM
Procedure: Biological Tests Method for Measurement of Enzymatic Activity of HDACs Materials & Methods
All Examples were tested in HDAC1, 2, 3, 6 and 8 in vitro enzymatic assays. The assay principle is well known (Hauser et al. 2009, Bradner et al. 2010) and all necessary reagents like enzymes, substrates, developer and reference compounds are commercially available (see e.g. BPS Biosciences http://www.bpsbioscience.com/). A series of dilutions of the compounds were prepared with a top concentration of 200 μM (2 μM for HDAC6). The enzymatic reactions were conducted in a mixture containing assay buffer, bovine serum albumin, HDAC substrate, and a test compound. After enzymatic reaction, developer was added and after an additional incubation time, fluorescence intensity was measured at an excitation wavelength of 360 nm and an emission wavelength of 460 nm. A selection of the Examples were tested in a full HDAC panel containing HDAC1, 2, 3, 4, 5, 6, 7, 8, 9, 10 and 11 in vitro enzymatic assays. The tests were performed as above except that a series of dilutions of the compounds were prepared with a top concentration of 10 μM for all HDACs.

[6] = molecular target: HDAC3 (Homo sapiens (Human), UniProt O15379); assay: HDAC in vitro enzymatic assay (fluorescence); conditions: read-out: IC50 HDAC3; selectivity profiling; top concentration 200 μM
Chain of HDAC3 (O15379 whole entry): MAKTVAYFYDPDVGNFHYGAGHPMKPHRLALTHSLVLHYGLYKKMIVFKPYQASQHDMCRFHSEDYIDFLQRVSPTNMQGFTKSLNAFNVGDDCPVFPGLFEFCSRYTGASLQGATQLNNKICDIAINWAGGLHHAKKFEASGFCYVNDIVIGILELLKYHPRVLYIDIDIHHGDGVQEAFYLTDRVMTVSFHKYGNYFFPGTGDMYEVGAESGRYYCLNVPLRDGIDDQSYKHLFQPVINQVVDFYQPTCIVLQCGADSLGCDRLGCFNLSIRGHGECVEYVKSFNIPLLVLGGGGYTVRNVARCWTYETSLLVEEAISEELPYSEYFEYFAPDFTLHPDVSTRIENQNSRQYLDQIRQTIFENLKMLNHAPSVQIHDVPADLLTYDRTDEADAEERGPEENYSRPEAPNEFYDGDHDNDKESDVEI
Chain of HDAC3 (Q9Y618 395-489 partner): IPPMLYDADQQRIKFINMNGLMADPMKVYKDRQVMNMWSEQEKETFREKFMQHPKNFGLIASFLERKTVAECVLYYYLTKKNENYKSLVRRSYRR

[7] = molecular target: HDAC2 (Homo sapiens (Human), UniProt Q92769); assay: HDAC in vitro enzymatic assay (fluorescence); conditions: read-out: IC50 HDAC2; selectivity profiling; top concentration 200 μM
Chain of HDAC2 (Q92769 whole entry): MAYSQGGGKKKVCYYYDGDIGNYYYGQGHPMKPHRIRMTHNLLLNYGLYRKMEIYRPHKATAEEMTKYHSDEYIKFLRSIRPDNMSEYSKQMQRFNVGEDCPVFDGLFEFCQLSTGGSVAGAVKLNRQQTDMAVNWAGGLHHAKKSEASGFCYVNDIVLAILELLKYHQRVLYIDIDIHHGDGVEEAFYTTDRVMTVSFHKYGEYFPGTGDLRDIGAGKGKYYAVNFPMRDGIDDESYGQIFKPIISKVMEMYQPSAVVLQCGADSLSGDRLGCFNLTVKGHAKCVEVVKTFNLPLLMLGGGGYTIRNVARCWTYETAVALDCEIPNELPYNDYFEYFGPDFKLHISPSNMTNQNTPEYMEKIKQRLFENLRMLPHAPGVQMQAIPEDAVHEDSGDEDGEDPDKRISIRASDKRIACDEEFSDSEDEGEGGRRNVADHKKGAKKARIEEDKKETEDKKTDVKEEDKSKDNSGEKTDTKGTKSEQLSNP

[8] = molecular target: HDAC8 (Homo sapiens (Human), UniProt Q9BY41); assay: HDAC in vitro enzymatic assay (fluorescence); conditions: read-out: IC50 HDAC8; selectivity profiling; top concentration 200 μM
Chain of HDAC8 (Q9BY41 whole entry): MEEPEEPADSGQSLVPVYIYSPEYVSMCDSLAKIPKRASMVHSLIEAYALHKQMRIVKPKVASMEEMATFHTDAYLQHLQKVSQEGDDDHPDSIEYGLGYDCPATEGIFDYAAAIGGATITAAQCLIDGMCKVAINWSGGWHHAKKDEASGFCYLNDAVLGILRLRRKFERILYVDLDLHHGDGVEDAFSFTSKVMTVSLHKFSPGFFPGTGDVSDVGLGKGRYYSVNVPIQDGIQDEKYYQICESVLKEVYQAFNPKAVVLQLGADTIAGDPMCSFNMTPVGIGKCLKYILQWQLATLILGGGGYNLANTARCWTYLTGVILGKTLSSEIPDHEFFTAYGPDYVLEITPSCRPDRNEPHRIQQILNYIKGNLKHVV

[9] = molecular target: HDAC1 (Homo sapiens (Human), UniProt Q13547); assay: HDAC in vitro enzymatic assay (fluorescence); conditions: read-out: IC50 HDAC1; selectivity profiling; top concentration 200 μM
Chain of HDAC1 (Q13547 whole entry): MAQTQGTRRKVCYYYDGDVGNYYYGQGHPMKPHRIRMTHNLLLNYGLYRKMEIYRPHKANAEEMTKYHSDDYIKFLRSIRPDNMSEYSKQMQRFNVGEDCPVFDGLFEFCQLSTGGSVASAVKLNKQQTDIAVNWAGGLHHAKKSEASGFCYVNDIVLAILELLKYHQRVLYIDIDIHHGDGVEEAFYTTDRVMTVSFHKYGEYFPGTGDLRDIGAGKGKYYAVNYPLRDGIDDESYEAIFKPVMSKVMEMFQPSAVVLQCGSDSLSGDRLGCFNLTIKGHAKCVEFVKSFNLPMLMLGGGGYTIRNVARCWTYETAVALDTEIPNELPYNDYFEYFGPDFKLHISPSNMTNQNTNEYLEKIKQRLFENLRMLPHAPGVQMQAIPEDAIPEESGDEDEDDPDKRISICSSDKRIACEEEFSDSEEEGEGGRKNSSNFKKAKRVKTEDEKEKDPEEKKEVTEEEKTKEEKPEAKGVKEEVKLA

[10] = U-266, U266 cells, 72 hours of treatment
[11] = AMO1, AMO-1 cells, 72 hours of treatment
[12] = healthy PBMC, 72 hours of treatment
[13] = PaCa-2, PaCa2 cells, 72 hours of treatment
[14] = read-out: IC50 values for inhibition of HDAC6
[15] = selectivity profiling, read-out: IC50 HDAC6

SMILES | pIC50 [1, 10] | pIC50 [2, 11] | pIC50 [3, 12] | pIC50 [4, 13] | pIC50 [5, 14] | pIC50 [6] | pIC50 ([1]; U-266, 72 h) | pIC50 ([2]; AMO1, 72 h) | pIC50 ([3]; PBMC, 72 h) | pIC50 ([4]; PaCa-2, 72 h) | pIC50 [7] | pIC50 [5, 15] | pIC50 [8] | pIC50 [9]
O=C(NO)c1ccc2nc(-c3cccc(C(F)(F)F)c3Cl)[nH]c2c1 [Example 34, 2-[2-chloro-3-(trifluoromethyl)phenyl]-N-hydroxy-1H-benzimidazole-6-carboxamide] | 5.41 | 5.00 | < 4.70 | 4.92 | – | – | – | – | – | – | – | – | – | –
O=C(NO)c1ccc2nc(-c3ccc(-c4cccc(Cl)c4)s3)[nH]c2c1 [Example 177, 2-[5-(3-chlorophenyl)thiophen-2-yl]-N-hydroxy-1H-benzimidazole-6-carboxamide] | 6.21 | 5.46 | < 4.70 | 5.96 | 8.29 | – | – | – | – | – | – | – | – | –
CC(C)(C)c1ccc(-c2nc3ccc(C(=O)NO)cc3[nH]2)cc1 [Example 159, 2-(4-tert-butylphenyl)-N-hydroxy-1H-benzimidazole-6-carboxamide] | 5.92 | 5.20 | < 4.70 | 5.68 | 7.72 | – | – | – | – | – | – | – | – | –
Cn1c(-c2ccc(-c3ccccc3)cc2)nc2cc(C(=O)NO)ccc21 [Example 225, 2-biphenyl-4-yl-N-hydroxy-1-methyl-1H-benzimidazole-5-carboxamide] | – | – | – | – | 8.44 | < 3.70 | 6.47 | < 4.70 | < 4.70 | 6.00 | < 3.70 | 8.44 | 7.13 | 6.49
CCCCCCCCCc1ccc(-c2nc3ccc(C(=O)NO)cc3[nH]2)cc1 [Example 161, 2-(4-nonylphenyl)-N-hydroxy-1H-benzimidazole-6-carboxamide] | 6.19 | 5.26 | < 4.70 | 6.21 | – | – | – | – | – | – | – | – | – | –
CC(C)c1ccc(-c2nc3cc(C(=O)NO)ccc3n2C)cc1 [Example 223, N-hydroxy-1-methyl-2-[4-(1-methylethyl)phenyl]-1H-benzimidazole-5-carboxamide] | – | – | – | – | 7.55 | 5.35 | 5.09 | 4.74 | < 4.70 | 5.27 | 4.22 | 7.55 | 7.08 | 5.80
CCCCc1ccc(-c2nc3ccc(C(=O)NO)cc3[nH]2)cc1 [Example 162, 2-(4-butylphenyl)-N-hydroxy-1H-benzimidazole-6-carboxamide] | – | – | – | – | 7.51 | 4.96 | 6.13 | 5.43 | < 4.70 | 6.09 | 4.03 | 7.51 | 6.72 | 5.11
O=C(NO)c1ccc2nc(-c3cccc(Br)c3)[nH]c2c1 [Example 21, 2-(3-bromophenyl)-N-hydroxy-1H-benzimidazole-6-carboxamide] | – | – | – | – | 7.92 | 6.11 | 5.11 | 5.15 | < 4.70 | 5.37 | 5.03 | 7.92 | 7.21 | 5.82
